From PubChem BioAssay AID504322 (Emory University Molecular Libraries Screening Center, 2011) come the findings set out here.

Active and inactive are the calls of the source. No rule for the calls is given here.

The assay relates to CHOP reporter cell assay, percent of control. The assay is described as follows: CHOP reporter inhibitor potency, dose response, cell-based (AID 504322).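 Also: CHO cells carrying a CHOP reporter stimulated with tunicamycin to induce ER stress; potency is for inhibition of the stress-induced reporter signal.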
As for `CC(C)c1nnc(NC(=O)c2c(O)c3cccc4c3n(c2=O)CCC4)s1`, the IC50 (in general, the concentration at which inhibition is half-maximal) is 4.99 µM (inactive).
The result for `CCOc1ccc(N=Cc2c(O)n(C(C)(C)C)c(=O)[nH]c2=O)cc1` reads 9.2 µM (inactive).
Turning to `CCCc1cc(=O)[nH]c(Nc2ccc(N3CCCCC3)cc2)n1`, the IC50 was 7.76 µM (inactive).
The result for `CC(=O)NCc1ccc(C(=O)CCl)s1` reads 9.42 µM (inactive); that for `N#CC1=C(N)N2C(=C(C#N)C1c1ccc(Br)cc1)Nc1ccccc12` (stereo not given), > 10 µM (inactive).
Under `O=C(On1c(-c2ccccc2)nc2ccccc2c1=O)c1ccco1` stands > 10 µM (inactive).
The result for `CC(C)c1ccc(NC(=O)CSc2nc(-c3ccccc3F)nc3nc[nH]c23)cc1` reads 9.99 µM (inactive); that for `O=c1[nH]c2ccccc2n1C1CCN(CCCC(c2ccc(F)cc2)c2ccc(F)cc2)CC1`, 6.34 µM (inactive); that for `CC(C)(C)c1cc(-c2csc(Nc3ccccc3)[n+]2Cc2ccc(C(=O)O)cc2)cc(C(C)(C)C)c1O`, 9.46 µM (inactive).
Take `Nc1ccc(SC(F)(F)F)cc1C(=O)c1ccccc1`: the IC50 is 4.97 µM.
For `O=C(CSC1c2ccccc2-c2ccccc21)N/N=C/c1ccccc1O`, the IC50 was > 10 µM (inactive).
The result for `O=C(/C=C/Sc1ncn[nH]1)c1ccc(Cl)cc1` reads > 10 µM (inactive); that for `CCCCCCn1c(CN2CCN(Cc3ccccc3)CC2)nc2c1c(=O)n(C)c(=O)n2C`, 6.9 µM (inactive); that for `CCCC(NCC(O)COc1ccc(-c2ccccc2)cc1)c1ccccc1` (stereo not given), 9.3 µM (inactive).
Under `Cc1ccccc1N1CCN(C(=O)c2ccc(Oc3ccc(C(F)(F)F)cn3)cc2)CC1` stands 3.48 µM (inactive); under `O=C1CC(c2ccccc2)CC(O)=C1C=Nc1cccc(Cl)c1` (stereo not given), 5.16 µM; under `CCCOc1ccc(N2C(=O)CC(SC(=NCC)Nc3cccc(F)c3)C2=O)cc1` (stereo not given), 8.9 µM (inactive).
Under `CN1CC(c2ccccc2)C2(SC(=S)N(Cc3ccco3)C2=O)C12C(=O)Nc1ccccc12` (stereo not given) stands > 10 µM (inactive); under `O=c1c(Cl)c(Cl)cnn1-c1ccccc1`, 9.45 µM (inactive).
With `COc1ccc(-c2nn(-c3ccccc3)cc2/C=N/NC(=O)c2ccc(Br)o2)cc1`, the IC50 is 9.29 µM (inactive).
The result for `O=S(=O)(Nc1ccccc1)c1ccc(Oc2ncc(C(F)(F)F)cc2Cl)cc1` reads > 10 µM (inactive); that for `COc1ccc(C(=O)NNC(=O)c2ccccn2)cc1`, 3.12 µM (inactive).
Under `Cc1cccc(C)c1NC(=O)COc1ccccc1C(=O)Nc1ccc(Br)cn1` stands > 10 µM (inactive); under `COc1ccc(CCNC(=O)c2nnn(-c3ccc4c(c3)OCCO4)c2N)cc1OC`, 0.69 µM; under `O=C(CNC1CCCCCC1)Nc1ccccc1N1CCCCC1`, 7.73 µM (inactive).
Under `C/C(=C\c1ccco1)C1C(C#N)=C(N)Oc2n[nH]c(-c3ccc(C)cc3)c21` (stereo not given) stands > 10 µM (inactive).
For the molecule `CCOc1cccc(CNc2ccc(O)cc2)c1OCc1ccc(Cl)cc1Cl`, the IC50 was 4.58 µM.
In the case of `O=C(OCn1ncc(Cl)c(Cl)c1=O)c1ccc(C(F)(F)F)cc1`, the IC50 is 9.59 µM (inactive).
In the case of `CCc1ccc(C(=O)/C=C/c2ccc([N+](=O)[O-])o2)cc1`, the IC50 was 9.75 µM (inactive).
Under `O=[N+]([O-])c1ccc(NC(=S)NCCc2ccc(Cl)cc2)cc1` stands > 10 µM (inactive); under `CCCCCc1ccc(OCCOCCn2c[n+](C)c3ccccc32)c(CCCCC)c1`, 3.52 µM; under `O=C(Nc1ccc(F)cc1)Nc1ccc(N2CCCC2)c(S(=O)(=O)Nc2ccccc2Cl)c1`, 8.31 µM (inactive).
Turning to `CC(C)=C1C2CCC1C(C(=O)Nc1sc(C)c(-c3ccc(C(C)C)cc3)c1C(N)=O)C2C(=O)O` (stereo not given), the half-inhibitory concentration (IC50) was 4.8 µM.
The result for `CC(C)c1ccc(O)c(NC(=S)NC(=O)CCc2ccccc2)c1` reads 2.97 µM (inactive); that for `CC1=C(CO)C(=O)OC([C@@H](C)C2CC[C@H]3C4C[C@H]5O[C@]56[C@@H](O)C=CC(=O)[C@]6(C)C4CC[C@]23C)C1` (stereo not given in full), > 10 µM (inactive).
On to `COc1cc(N(C(=O)Cc2cccs2)C(C(=O)NC2CCCCC2)c2ccc(C)cc2)ccc1-n1cnnn1` (stereo not given), for which the IC50 was 9.94 µM (inactive).
In the case of `COc1ccc2c3c(cccc13)C(=O)N(O)C2=O`, the half-maximal inhibitory concentration (IC50) was 2.57 µM.
`C=CCn1c(SCC(=O)c2[nH]c(C)c(C(=O)OC)c2C)nc2scc(-c3ccc(OC)c(OC)c3)c2c1=O`: the IC50 is 6.22 µM (inactive).
In the case of `Cc1cccc(OCc2nnc(SCc3nc4cc(C(F)(F)F)ccc4c(=O)[nH]3)o2)c1`, the IC50 was 8.17 µM (inactive).
Under `CCOC(=O)c1cnc(-n2nc(C)cc2C)nc1NC1CCCCC1` stands > 10 µM (inactive); under `Cc1ccc(NC(=O)c2nc[nH]c2C(=O)N[C@@H](C)C(=O)OC(C)(C)C)cc1`, 5.12 µM (inactive).
The result for `Cc1ccc(OCC(=O)N2CCN(c3nnc(-c4ccc(C)cc4)c4ccccc34)CC2)cc1` reads 8.38 µM (inactive).
The result for `O=C(Nc1cc(N2CCOCC2)ncn1)NC1(C(F)(F)F)Oc2ccc(Cl)cc2O1` (stereo not given) reads > 10 µM (inactive).
Consider `Cc1ccc2[nH]c3c(c2c1)CN(C(=O)CN1CCN(c2cccc(C)c2C)CC1)CC3`, for which the IC50 was 8.33 µM (inactive).
Under `O=C(NCc1nc(-c2ccc(C(F)(F)F)cc2)no1)Nc1ccc(OC(F)(F)F)cc1` stands 2.03 µM; under `C/C(=N\NC(=O)COc1ccc(C(C)(C)C)cc1)c1ccc(N2CCOCC2)cc1`, 9.41 µM (inactive).
As for `C/C=C/Cn1c(SCCCc2ccccc2)nc2c1c(=O)[nH]c(=O)n2C`, the IC50 was > 10 µM (inactive).
In the case of `CC(C)Cn1c(N)c(C(=O)COC(=O)CC23CC4CC(CC(C4)C2)C3)c(=O)n(C)c1=O`, the half-inhibitory concentration (IC50) is 0.82 µM.
Consider `CSc1nc(-c2ccccc2)nc(C(Cl)Cl)n1`, for which the IC50 is 5.1 µM.
For the molecule `CCOC(=O)/C=C/S(=O)(=O)c1ccc(NC(C)=O)cc1`, the 50% inhibitory concentration (IC50) is 4.78 µM.
The result for `O=C(Nc1ccc([N+](=O)[O-])cc1)Nc1ccc(OC(F)F)c(Cl)c1` reads 6.4 µM (inactive).
For `CCC(C)[C@@H](NC(=O)OC(C)(C)C)c1nnc(S(=O)(=O)Cc2cccc(C)c2)o1` (stereo not given in full), the IC50 was 4.78 µM.
The result for `Cc1ccc(NC(=O)c2ccc(Nc3c([N+](=O)[O-])cc([N+](=O)[O-])cc3[N+](=O)[O-])cc2)cc1` reads 1.81 µM; that for `Cc1cc(C)c(S(=O)(=O)NCCn2c(C)cc3ccccc32)c(C)c1`, 9.61 µM (inactive); that for `O=C(Nc1cccc(Cl)c1)Nc1ccnc(-c2cccnc2)n1`, > 10 µM (inactive).
Under `Cc1ccc(-c2nnc(-c3ccc(NC(=O)Cc4cccs4)cc3)o2)cc1` stands 8.41 µM (inactive); under `CCN(CC)S(=O)(=O)c1cccc(NC(=O)Nc2cccc(C(F)(F)F)c2)c1`, 8.55 µM (inactive); under `COc1ccc(NC(=O)c2cc3cccc(OC)c3oc2=Nc2ccc(C(=O)O)cc2)cc1OC`, 5.28 µM (inactive).
Under `Cc1cccc(Nc2nc(N)c([N+](=O)[O-])c(N3CC(C)CC(C)C3)n2)c1` (stereo not given) stands > 10 µM (inactive); under `O=C(OCn1ncc(Br)c(Br)c1=O)c1c(F)cccc1F`, 0.76 µM.
On to `Cc1cc(C2=NNC(=NC3CC3)SC2)c(C)n1-c1ccccc1F`, for which the 50% inhibitory concentration (IC50) was < 0.16 µM.
Turning to `CCOc1cc(/C=N/NC(=O)COc2cccc(C)c2)ccc1OC(=O)c1cccs1`, the IC50 was > 10 µM (inactive).
Take `COC(=O)c1sc(-c2ccc(C(C)(C)C)cc2)cc1NC(=O)c1ccccc1C(=O)O`: the IC50 was 8.29 µM (inactive).
The result for `CC(C)C[C@H](NC(=O)c1nc[nH]c1C(=O)NCC(=O)OC(C)(C)C)C(=O)OCc1ccccc1` reads > 10 µM (inactive); that for `CC1CCC(C(C)C)C(OCC(O)CN2CCN(Cc3ccccc3)CC2)C1` (stereo not given), 7 µM (inactive).
The result for `N=C(N)c1c(O)n(C2CCCCC2)c(=O)n(C2CCCCC2)c1=O` reads 2.77 µM; that for `CCCC(=O)NC(NC(=S)Nc1ccc(N=Nc2ccccc2)cc1)C(Cl)(Cl)Cl` (stereo not given), 7.31 µM; that for `CN=C1SC(CC(=O)Nc2ccc(F)cc2F)C(=O)N1/N=C/c1ccc(OC(F)F)c(OC)c1` (stereo not given), 9.78 µM (inactive).
Under `CCN1C/C(=C/c2ccc(OC)c(O)c2)C(=O)/C(=C/c2ccc(OC)c(O)c2)C1` stands 5.33 µM (inactive); under `NC(=S)n1[nH]c(-c2ccc([N+](=O)[O-])cc2)c(N=Nc2cccc([N+](=O)[O-])c2)c1=O`, 4.4 µM (inactive); under `O=S(=O)(C/C(=C/CO)S(=O)(=O)c1ccccc1)c1ccccc1`, > 10 µM (inactive).
Turning to `CCOc1ccc(-c2cc(CCCC(=O)NCc3ccc(C)cc3)no2)cc1`, the IC50 was 5.91 µM (inactive).
Regarding `O=C(NC(c1ccccc1)c1c(O)ccc2ccccc12)c1ccccc1Cl` (stereo not given), the IC50 is > 10 µM (inactive).
Under `OC(CNCC1CCCO1)Cn1c2ccc(Br)cc2c2cc(Br)ccc21` (stereo not given) stands 8.2 µM (inactive); under `O=C(Nc1ccccc1Cl)c1ccccc1Oc1ccc(C(F)(F)F)cc1[N+](=O)[O-]`, 6.53 µM (inactive); under `FC(F)C(F)(F)C(F)(F)C(F)(F)c1cc(-c2ccccc2)n[nH]1`, 9.67 µM (inactive).
Under `CC1(C)C[C@H]2C=C(C=O)[C@]3(C=O)C[C@]3(C)[C@H]2C1` stands 0.85 µM; under `CCOC(=O)C1=C(C)NC(C)=C(C(=O)OCC)C1/C=C/c1ccccc1`, > 10 µM (inactive).
As to `Cc1ccc(-c2nc(N)sc2-c2ccc(C)cc2)cc1`, the IC50 was 9.83 µM (inactive).
The result for `COc1ccc(C(CCNCc2ccc(F)cc2)c2ccc(F)cc2)cc1` (stereo not given) reads 9.74 µM (inactive); that for `O=C(Nc1cccc(Cl)c1Cl)c1cc(S(=O)(=O)NCCc2ccccc2)ccc1F`, 9.57 µM (inactive); that for `O=c1oc2ccccc2c(Cl)c1CN1CCCCC1`, 9.26 µM (inactive).
The result for `O=C(ONc1ccc(N=NC(=O)c2ccccc2O)cc1)c1ccccc1` reads > 10 µM (inactive).
Take `O=C1CC(c2ccco2)CC(O)=C1C=Nc1ccccc1-c1ccccc1` (stereo not given): the IC50 is 2.84 µM (inactive).
On to `Cc1ccc(/C=N/NC(=O)CSCc2ccc(Cl)cc2)cc1`, for which the IC50 was 9.83 µM (inactive).
